This note sets out measurements from patent publication US7846959B2, “Raf modulators and methods of use” (Exelixis, Inc., priority 2004, dated 2010).

For one test, the target named is B-Raf (Homo sapiens, UniProt P15056). The experiment in a line: Luciferase-coupled chemiluminescence kinase assay (ATP consumption), B-Raf. The format is biochemical. How it is done:
(§1) Tyrosine kinase activity is determined by 1) measurement of kinase-dependent ATP consumption by in the presence of a generic substrate such as […], tyrosine (pEY), by luciferase/luciferin-mediated chemiluminescence or; 2) incorporation of radioactive phosphate derived from ^33P-ATP into a generic substrate which has been adsorbed onto the well surface of polystyrene microtiter plates. Phosphorylated substrate products are quantified by scintillation spectrometry.
(§2) Luciferase-Coupled Chemiluminescence Assay Protocol
(§3) Kinase activity is measured as the percent of ATP consumed following the kinase reaction using luciferase-luciferin-coupled chemiluminescence. Reactions were conducted in 384-well white, medium binding microtiter plates (Greiner). Kinase reactions were initiated by combining test compounds, ATP and kinase in a 20 uL volume. The reaction mixture was incubated at ambient temperature for 3 hrs. For c-Raf, B-Raf, and B-RafV599E, […] of the enzyme was pre-incubated with compound in 20 mM Tris pH 7.5, 10 mM MgCl2, 0.03% TX-100, and 1 mM DTT for 30 minutes at room temperature. Following the kinase reaction, a 20 μL aliquot of luciferase-luciferin mix was added and the chemiluminescence signal measured using a Victor^2 plate reader (Perkin Elmer). The luciferase-luciferin mix contained 50 mM HEPES, pH 7.8, 67 mM oxalic acid (pH 7.8), 5 (or 50) mM DTT, 0.4% Triton X-100, 0.25 mg/mL coenzyme A, 63 μM AMP, 28 μg/mL luciferin and 40,000 units/mL luciferase. Total ATP consumption was limited to 25-60% and the IC50 values correlate well with those determined by radiometric assays.

Another test deals with c-Raf (Homo sapiens, UniProt P04049). Description: Luciferase-coupled chemiluminescence kinase assay (ATP consumption), c-Raf. The format is biochemical. As for the experimental part:
as §1, §2, §3

The mark [1] stands for this setting: read-out: bRaf (inhibition indicated as IC50).
Setting [2] is: read-out: cRaf-1 (inhibition indicated as IC50).

Read-outs that look alike come from different tables or passages of the source. Some results are limits rather than exact numbers.

B-Raf, sequence (P15056 whole entry): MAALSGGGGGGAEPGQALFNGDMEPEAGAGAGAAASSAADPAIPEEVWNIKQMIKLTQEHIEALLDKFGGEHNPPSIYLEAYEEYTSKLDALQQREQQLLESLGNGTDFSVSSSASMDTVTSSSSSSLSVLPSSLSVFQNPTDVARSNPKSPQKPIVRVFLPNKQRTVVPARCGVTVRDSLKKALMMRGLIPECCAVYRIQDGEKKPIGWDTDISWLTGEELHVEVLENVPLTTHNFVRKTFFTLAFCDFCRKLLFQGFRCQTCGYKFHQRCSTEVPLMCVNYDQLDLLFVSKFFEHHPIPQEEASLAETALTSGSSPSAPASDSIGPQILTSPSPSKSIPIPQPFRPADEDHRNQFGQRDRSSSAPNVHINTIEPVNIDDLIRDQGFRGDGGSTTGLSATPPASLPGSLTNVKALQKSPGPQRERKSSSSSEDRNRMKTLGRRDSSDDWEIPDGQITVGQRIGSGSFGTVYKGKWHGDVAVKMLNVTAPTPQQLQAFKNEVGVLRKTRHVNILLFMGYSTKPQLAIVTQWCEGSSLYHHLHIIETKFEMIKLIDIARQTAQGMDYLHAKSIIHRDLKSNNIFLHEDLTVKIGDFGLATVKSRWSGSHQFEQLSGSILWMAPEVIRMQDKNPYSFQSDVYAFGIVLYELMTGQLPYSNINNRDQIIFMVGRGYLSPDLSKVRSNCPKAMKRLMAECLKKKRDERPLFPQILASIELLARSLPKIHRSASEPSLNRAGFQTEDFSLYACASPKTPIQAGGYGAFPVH
c-Raf, sequence (P04049 whole entry): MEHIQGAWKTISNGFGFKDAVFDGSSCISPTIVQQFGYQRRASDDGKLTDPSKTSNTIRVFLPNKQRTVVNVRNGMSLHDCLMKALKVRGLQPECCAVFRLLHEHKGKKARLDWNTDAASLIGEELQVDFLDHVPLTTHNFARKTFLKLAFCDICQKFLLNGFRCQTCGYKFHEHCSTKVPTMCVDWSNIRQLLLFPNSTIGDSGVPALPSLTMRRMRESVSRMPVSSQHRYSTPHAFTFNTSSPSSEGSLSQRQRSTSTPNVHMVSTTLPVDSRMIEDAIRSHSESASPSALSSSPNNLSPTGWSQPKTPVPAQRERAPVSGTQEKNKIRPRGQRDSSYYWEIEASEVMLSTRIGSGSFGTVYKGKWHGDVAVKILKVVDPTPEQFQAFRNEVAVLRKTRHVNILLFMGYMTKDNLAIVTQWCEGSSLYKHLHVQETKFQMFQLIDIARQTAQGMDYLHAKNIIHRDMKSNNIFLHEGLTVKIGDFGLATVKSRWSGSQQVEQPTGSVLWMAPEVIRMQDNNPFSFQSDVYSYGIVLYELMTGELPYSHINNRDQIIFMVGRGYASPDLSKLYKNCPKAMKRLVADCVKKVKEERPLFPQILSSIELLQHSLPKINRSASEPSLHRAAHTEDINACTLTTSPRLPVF

The IC50 is the point on the concentration scale where inhibition reaches its midpoint. `COC(=O)Nc1nc2cc(C3(O)c4ccccc4C(=O)N3c3cccnc3)ccc2[nH]1` (stereo not shown) [Entry 242, methyl [5-(1-hydroxy-3-oxo-2-pyridin-3-yl-2,3-dihydro-1H-isoindol-1-yl)-1H-benzimidazol-2-yl]carbamate]: the IC50 was 100 to 1000 nM on B-Raf (read-out: bRaf IC50) and below 100 nM at c-Raf (read-out: cRaf-1 IC50).

On to `Nc1nc2cc(C3(O)c4ccccc4C(=O)N3Cc3ccccc3)ccc2[nH]1` (stereo not shown) [Entry 101, 3-(2-amino-1H-benzimidazol-5-yl)-3-hydroxy-2-(phenylmethyl)-2,3-dihydro-1H-isoindol-1-one], for which the IC50 on B-Raf (read-out: bRaf IC50) and on c-Raf (read-out: cRaf-1 IC50) was 1000 to 10000 nM in each case.

For `COC(=O)Nc1nc2cc(C3(O)c4ccccc4C(=O)N3c3cccc(OCc4ccccc4)c3)ccc2[nH]1` (stereo not shown) [Entry 221, methyl [5-(1-hydroxy-3-oxo-2-{3-[(phenylmethyl)oxy]phenyl}-2,3-dihydro-1H-isoindol-1-yl)-1H-benzimidazol-2-yl]carbamate], the half-inhibitory concentration (IC50) was 100 to 1000 nM on B-Raf (read-out: bRaf IC50) and below 100 nM at c-Raf (read-out: cRaf-1 IC50).

Turning to `O=C(Nc1nc2cc(C3(O)c4ccccc4C(=O)N3c3cccc(Cl)c3F)ccc2[nH]1)OC1CC(F)(F)C1(F)F` (stereo not shown) [Entry 325, 2,2,3,3-tetrafluorocyclobutyl {5-[2-(3-chloro-2-fluorophenyl)-1-hydroxy-3-oxo-2,3-dihydro-1H-isoindol-1-yl]-1H-benzimidazol-2-yl}carbamate], the IC50 at B-Raf (setting [1]) and at c-Raf (setting [2]) was below 100 nM in each case.

Consider `COC(=O)Nc1nc2cc(C3(O)c4ccccc4C(=O)N3c3ccccc3Cl)ccc2[nH]1` (stereo not shown) [Entry 143, methyl {5-[2-(2-chlorophenyl)-1-hydroxy-3-oxo-2,3-dihydro-1H-isoindol-1-yl]-1H-benzimidazol-2-yl}carbamate], for which the IC50 on B-Raf (read-out: bRaf IC50) and on c-Raf (read-out: cRaf-1 IC50) was below 100 nM in each case.

Regarding `COC(=O)Nc1nc2cc(C3(O)c4ccccc4C(=O)N3Cc3ccccc3C)ccc2[nH]1` (stereo not shown) [Entry 133, methyl (5-{1-hydroxy-2-[(2-methylphenyl)methyl]-3-oxo-2,3-dihydro-1H-isoindol-1-yl}-1H-benzimidazol-2-yl)carbamate], the half-maximal inhibitory concentration (IC50) at B-Raf (read-out: bRaf IC50) and at c-Raf (read-out: cRaf-1 IC50) was below 100 nM in each case.

For `C#Cc1cccc(N2C(=O)c3ccccc3C2(O)c2ccc3[nH]c(Nc4ncccn4)nc3c2)c1F` (stereo not shown) [Entry 364, 2-(3-ethynyl-2-fluorophenyl)-3-hydroxy-3-[2-(pyrimidin-2-ylamino)-1H-benzimidazol-5-yl]-2,3-dihydro-1H-isoindol-1-one], the concentration for half-maximal inhibition (IC50) at B-Raf (setting [1]) and on c-Raf (setting [2]) was below 100 nM throughout.

With `COC(=O)Nc1nc2cc(C3(O)c4ccccc4C(=O)N3c3ccccc3OC(F)(F)F)ccc2[nH]1` (stereo not shown) [Entry 183, methyl [5-(1-hydroxy-3-oxo-2-{2-[(trifluoromethyl)oxy]phenyl}-2,3-dihydro-1H-isoindol-1-yl)-1H-benzimidazol-2-yl]carbamate], the figures for the IC50 at B-Raf (read-out: bRaf IC50) and at c-Raf (read-out: cRaf-1 IC50) were below 100 nM and 100 to 1000 nM, respectively.

In the case of `COC(=O)Nc1nc2cc(C(=O)c3ccccc3C(=O)NOc3ccccc3)ccc2[nH]1` [Entry 272, methyl {5-[(2-{[(phenyloxy)amino]carbonyl}phenyl)carbonyl]-1H-benzimidazol-2-yl}carbamate], the half-maximal inhibitory concentration (IC50) on B-Raf (setting [1]) and on c-Raf (setting [2]) was below 100 nM in each case.

Take `O=C1c2ccccc2C(O)(c2ccc3cn[nH]c3c2)N1Cc1ccccc1` (stereo not shown) [Entry 95, 3-hydroxy-3-(1H-indazol-6-yl)-2-(phenylmethyl)-2,3-dihydro-1H-isoindol-1-one]: the half-maximal inhibitory concentration (IC50) on B-Raf (read-out: bRaf IC50) and at c-Raf (read-out: cRaf-1 IC50) was at least 10000 nM each time.

For the compound `COC(=O)Nc1nc2cc(C3(O)c4ccccc4C(=O)N3c3ccccc3C)ccc2[nH]1` (stereo not shown) [Entry 144, methyl {5-[1-hydroxy-2-(2-methylphenyl)-3-oxo-2,3-dihydro-1H-isoindol-1-yl]-1H-benzimidazol-2-yl}carbamate], the half-maximal inhibitory concentration (IC50) at B-Raf (read-out: bRaf IC50) and at c-Raf (read-out: cRaf-1 IC50) was below 100 nM each time.

On to `CN1CCCCC1COC(=O)Nc1nc2ccc(C3(O)c4ccccc4C(=O)N3c3cccc(Cl)c3F)cc2[nH]1` (stereo not shown) [Entry 302, (1-methylpiperidin-2-yl)methyl {6-[2-(3-chloro-2-fluorophenyl)-1-hydroxy-3-oxo-2,3-dihydro-1H-isoindol-1-yl]-1H-benzimidazol-2-yl}carbamate], for which the IC50 at B-Raf (setting [1]) and at c-Raf (setting [2]) was below 100 nM in each case.

Regarding `O=C1COc2ccc(C3(O)c4ccccc4C(=O)N3c3cccc(OC(F)(F)F)c3)cc2N1` (stereo not shown) [Entry 60, 6-(1-hydroxy-3-oxo-2-{3-[(trifluoromethyl)oxy]phenyl}-2,3-dihydro-1H-isoindol-1-yl)-2H-1,4-benzoxazin-3(4H)-one], the half-maximal inhibitory concentration (IC50) at B-Raf (read-out: bRaf IC50) and on c-Raf (read-out: cRaf-1 IC50) was at least 10000 nM each time.

`CC[C@@H](c1ccccc1)N1C(=O)c2ccccc2C1(O)c1ccc2[nH]c(NC(=O)OC)nc2c1` (stereo partly drawn) [Entry 199, methyl (5-{1-hydroxy-3-oxo-2-[(1S)-1-phenylpropyl]-2,3-dihydro-1H-isoindol-1-yl}-1H-benzimidazol-2-yl)carbamate]: the concentration for half-maximal inhibition (IC50) at B-Raf (read-out: bRaf IC50) and at c-Raf (read-out: cRaf-1 IC50) was 1000 to 10000 nM each time.

As for `C#CCCC(=O)Nc1nc2ccc(C3(O)c4ccccc4C(=O)N3Cc3ccccc3)cc2[nH]1` (stereo not shown) [Entry 253, N-{6-[1-hydroxy-3-oxo-2-(phenylmethyl)-2,3-dihydro-1H-isoindol-1-yl]-1H-benzimidazol-2-yl}pent-4-ynamide], the half-maximal inhibitory concentration (IC50) at B-Raf (read-out: bRaf IC50) and at c-Raf (read-out: cRaf-1 IC50) was below 100 nM each time.

Consider `O=C1c2ccccc2C(O)(c2ccc3[nH]c(Nc4ncccn4)nc3c2)N1c1cccc(Cl)c1F` (stereo not shown) [Entry 354, 2-(3-chloro-2-fluorophenyl)-3-hydroxy-3-[2-(pyrimidin-2-ylamino)-1H-benzimidazol-5-yl]-2,3-dihydro-1H-isoindol-1-one], for which the IC50 at B-Raf (setting [1]) and on c-Raf (setting [2]) was below 100 nM throughout.

In the case of `COC(=O)Nc1nc2cc(C3(O)c4ccccc4C(=O)N3Cc3ccsc3)ccc2[nH]1` (stereo not shown) [Entry 206, methyl {5-[1-hydroxy-3-oxo-2-(3-thienylmethyl)-2,3-dihydro-1H-isoindol-1-yl]-1H-benzimidazol-2-yl}carbamate], the concentration for half-maximal inhibition (IC50) on B-Raf (read-out: bRaf IC50) and at c-Raf (read-out: cRaf-1 IC50) was below 100 nM throughout.

Regarding `O=C(Cc1cccs1)Nc1nc2cc(C3(O)c4ccccc4C(=O)N3c3cccc(Cl)c3F)ccc2[nH]1` (stereo not shown) [Entry 338, N-{5-[2-(3-chloro-2-fluorophenyl)-1-hydroxy-3-oxo-2,3-dihydro-1H-isoindol-1-yl]-1H-benzimidazol-2-yl}-2-(2-thienyl)acetamide], the IC50 at B-Raf (setting [1]) and at c-Raf (setting [2]) was below 100 nM in each case.

In the case of `NC(=O)c1cccc(N2C(=O)c3ccccc3C2(O)c2ccc3c(c2)NC(=O)CO3)c1` (stereo not shown) [Entry 81, 3-[1-hydroxy-3-oxo-1-(3-oxo-3,4-dihydro-2H-1,4-benzoxazin-6-yl)-1,3-dihydro-2H-isoindol-2-yl]benzamide], the concentration for half-maximal inhibition (IC50) at B-Raf (read-out: bRaf IC50) and on c-Raf (read-out: cRaf-1 IC50) was 1000 to 10000 nM in each case.

Regarding `COC(=O)Nc1nc2cc(C3(O)c4ccccc4C(=O)N3C3CCc4ccccc43)ccc2[nH]1` (stereo not shown) [Entry 191, methyl {5-[2-(2,3-dihydro-1H-inden-1-yl)-1-hydroxy-3-oxo-2,3-dihydro-1H-isoindol-1-yl]-1H-benzimidazol-2-yl}carbamate], the IC50 on B-Raf (read-out: bRaf IC50) and at c-Raf (read-out: cRaf-1 IC50) was below 100 nM throughout.

With `COC(=O)Nc1nc2cc(C3(O)c4ccccc4C(=O)N3Cc3cccc(I)c3)ccc2[nH]1` (stereo not shown) [Entry 121, methyl (5-{1-hydroxy-2-[(3-iodophenyl)methyl]-3-oxo-2,3-dihydro-1H-isoindol-1-yl}-1H-benzimidazol-2-yl)carbamate], the IC50 on B-Raf (read-out: bRaf IC50) and at c-Raf (read-out: cRaf-1 IC50) was 100 to 1000 nM in each case.

`O=C1COc2ccc(C3(O)c4ccccc4C(=O)N3c3cc(F)cc(F)c3)cc2N1` (stereo not shown) [Entry 68, 6-[2-(3,5-difluorophenyl)-1-hydroxy-3-oxo-2,3-dihydro-1H-isoindol-1-yl]-2H-1,4-benzoxazin-3(4H)-one]: the IC50 at B-Raf (read-out: bRaf IC50) and on c-Raf (read-out: cRaf-1 IC50) was 1000 to 10000 nM in each case.

Consider `COC(=O)Nc1nc2cc(C3(O)c4ccccc4C(=O)N3Cc3nccs3)ccc2[nH]1` (stereo not shown) [Entry 163, methyl {5-[1-hydroxy-3-oxo-2-(1,3-thiazol-2-ylmethyl)-2,3-dihydro-1H-isoindol-1-yl]-1H-benzimidazol-2-yl}carbamate], for which the IC50 at B-Raf (read-out: bRaf IC50) and on c-Raf (read-out: cRaf-1 IC50) was 100 to 1000 nM each time.

Consider `COC(=O)Nc1nc2cc(C3(O)c4ccccc4C(=O)N3CC3CCCCC3)ccc2[nH]1` (stereo not shown) [Entry 161, methyl {5-[2-(cyclohexylmethyl)-1-hydroxy-3-oxo-2,3-dihydro-1H-isoindol-1-yl]-1H-benzimidazol-2-yl}carbamate], for which the IC50 at B-Raf (read-out: bRaf IC50) and on c-Raf (read-out: cRaf-1 IC50) was below 100 nM throughout.

As for `C=Cc1cccc(NC(=O)c2ccccc2C(=O)c2ccc3nc(NC(=O)OC)[nH]c3c2)c1` [Entry 413, methyl {6-[(2-{[(3-ethenylphenyl)amino]carbonyl}phenyl)carbonyl]-1H-benzimidazol-2-yl}carbamate], the IC50 at B-Raf (setting [1]) and at c-Raf (setting [2]) was below 100 nM throughout.

Regarding `O=C1COc2ccc(C3(O)c4ccccc4C(=O)N3c3ccccc3F)cc2N1` (stereo not shown) [Entry 83, 6-[2-(2-fluorophenyl)-1-hydroxy-3-oxo-2,3-dihydro-1H-isoindol-1-yl]-2H-1,4-benzoxazin-3(4H)-one], the IC50 on B-Raf (read-out: bRaf IC50) lay within 100 to 1000 nM; on c-Raf (read-out: cRaf-1 IC50), 1000 to 10000 nM.
